This passage reports inhibition and Inhibition in % results from US9315490B2, “2,5-substituted pyrimidines” (Grünenthal GmbH, priority 2014, dated 2016).

The target in this test is T1, human PDE4B1 (Homo sapiens, UniProt Q07343).
T1 construct: host or cells: Sf9 cells
Put plainly: cAMP HTRF assay to determine the activity of hPDE4B1. The format is biochemical. Particulars: inhibition of PDE4B at a test concentration of 1 μM; for Inhibition in %: 1 µM. The procedure:
Biological Testing cAMP HTRF® Assay to Determine the Activity of hPDE4B1
The inhibiting effect of the compounds on the enzyme activity of human PDE4B1 was measured by the quantification of 5′-adenosine monophosphate (5′-AMP), which is formed from 3′,5′-cyclic adenosine monophosphate (cAMP). Human recombinant enzyme, expressed in Sf9 cells, and the HTRF (homogeneous time-resolved fluorescence) detection method were used in the assay.
The test compound or water (control) was mixed with the human recombinant PDE4B1 enzyme (4.8 U) in a buffer consisting of 44.4 mM tris-HCl, 5.28 mM MgCl2, 2.64 mM DTT and 0.044% Tween 20 (pH 7.8). After adding the cAMP enzyme substrate (final concentration 40 nM), the mixture was incubated for 30 minutes at room temperature. Then a fluorescence acceptor (Dye2 marked with cAMP), a fluorescence donor (anti-cAMP antibody marked with a europium cryptate) and the non-specific phosphodiesterase inhibitor IBMX (3-isobutyl-1-methylxanthine; final concentration 1 mM) were added. After 60 minutes the fluorescence transfer, which correlates with the amount of remaining cAMP, was measured with a microplate reader (Rubystar, BMG) at λex=337 nm, λem=620 nm and λem=665 nm. The enzyme activity was calculated from the quotient formed from the measured signal at 665 nm and that at 620 nm. The result was expressed as the percentage inhibition of enzyme activity of the control (without PDE4 inhibitor). The enzyme was omitted for measurement of the basal control. IC50 values (IC50=concentration causing a half-maximal inhibition of control specific activity) were derived from dose response measurements with eight different concentrations (n=2; N=1-3).
Literature: N. Saldou et al., Comparison of recombinant human PDE4 isoforms: interaction with substrate and inhibitors, Cell. Signal. Vol. 10, No. 6, 427-440, 1998

T1 sequence (Q07343 whole entry): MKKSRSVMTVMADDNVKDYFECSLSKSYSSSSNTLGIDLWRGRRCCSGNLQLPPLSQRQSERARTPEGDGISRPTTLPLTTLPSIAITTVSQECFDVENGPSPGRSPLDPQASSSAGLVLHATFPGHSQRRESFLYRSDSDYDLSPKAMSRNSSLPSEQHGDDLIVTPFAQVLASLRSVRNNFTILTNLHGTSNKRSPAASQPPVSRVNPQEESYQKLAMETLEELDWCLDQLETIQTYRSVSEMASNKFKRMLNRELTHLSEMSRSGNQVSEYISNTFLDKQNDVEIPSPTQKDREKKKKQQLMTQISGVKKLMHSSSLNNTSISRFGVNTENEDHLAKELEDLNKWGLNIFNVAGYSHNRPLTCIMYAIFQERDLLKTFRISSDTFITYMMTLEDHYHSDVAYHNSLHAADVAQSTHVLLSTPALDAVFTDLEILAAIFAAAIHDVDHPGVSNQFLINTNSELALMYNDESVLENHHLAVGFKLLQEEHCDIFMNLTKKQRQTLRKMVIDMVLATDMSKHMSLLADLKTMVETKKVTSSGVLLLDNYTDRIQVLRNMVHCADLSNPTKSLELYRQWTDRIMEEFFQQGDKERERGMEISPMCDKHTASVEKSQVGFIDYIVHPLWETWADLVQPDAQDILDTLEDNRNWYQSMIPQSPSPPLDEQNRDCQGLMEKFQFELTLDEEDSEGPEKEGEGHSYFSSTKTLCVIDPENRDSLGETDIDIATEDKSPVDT

The inhibition is the relative decrease from the control value, in per cent. As for `C[S+]([O-])c1cn(-c2ncc(-c3ccccc3F)cn2)c2cc(C(=O)N3CC[C@@H](N)C3)ccc12` (stereo partly shown) [Example 68], the inhibition at 1 µM was 108%. In the case of `COc1cccc(-c2cnc(-n3cc([S+](C)[O-])c4ccc(C(=O)N5CCOCC5)cc43)nc2)c1` (single isomer, unassigned) [Example 157, (1-(5-(3-Methoxyphenyl)pyrimidin-2-yl)-3-(methylsulfinyl)-1H-indol-6-yl)(morpholino)methanone], the Inhibition in % is 81%. As to `CN(C)C(=O)CN1CCN(C(=O)c2ccc3c([S+](C)[O-])cn(-c4ncc(-c5ccccc5F)cn4)c3c2)CC1` (stereo not shown) [Example 395, 2-(4-(1-(5-(2-Fluorophenyl)pyrimidin-2-yl)-3-(methylsulfinyl)-1H-indole-6-carbonyl)piperazin-1-yl)-N,N-dimethylacetamide], the inhibition at 1 µM was 0%. For the compound `C[S+]([O-])c1cn(-c2ncc(-c3ccccc3F)cn2)c2cc(C(=O)N3CCOC(C)(C)C3)ccc12` (stereo not shown) [Example 74, (2,2-Dimethylmorpholino)(1-(5-(2-fluorophenyl)pyrimidin-2-yl)-3-(methylsulfinyl)-1H-indol-6-yl)methanone], the Inhibition in % was 63%. Turning to `C[S+]([O-])c1cn(-c2ncc(-c3ccc(C(N)=O)cc3)cn2)c2cc(C(=O)N3CCOCC3)ccc12` (stereo not shown) [Example 42, 4-(2-(3-(Methylsulfinyl)-6-(morpholine-4-carbonyl)-1H-indol-1-yl)pyrimidin-5-yl)benzamide], the inhibition at 1 µM worked out at 86%.

On to `CCN(CC)C(=O)c1ccc2c([S+](C)[O-])cn(-c3ncc(-c4ccccc4F)cn3)c2c1` (stereo not shown) [Example 357, N,N-Diethyl-1-(5-(2-fluorophenyl)pyrimidin-2-yl)-3-(methylsulfinyl)-1H-indole-6-carboxamide], for which the inhibition at 1 µM came to 107%.

With `Cc1cccc(-c2cnc(-n3cc([S+](C)[O-])c4ccc(C(=O)N5CCOCC5)cc43)nc2)c1` (stereo not shown) [Example 37, (3-(Methylsulfinyl)-1-(5-(m-tolyl)pyrimidin-2-yl)-1H-indol-6-yl)(morpholino)methanone], the inhibition at 1 µM was found to be 103%. Regarding `Cc1cccc(-c2cnc(-n3cc([S+](C)[O-])c4ccc(C(=O)N5CC[C@@H](N)C5)cc43)nc2)c1` (stereo partly drawn) [Example 224, ((R)-3-Aminopyrrolidin-1-yl)(3-(methylsulfinyl)-1-(5-(m-tolyl)pyrimidin-2-yl)-1H-indol-6-yl)methanone], the inhibition at 1 µM came out at 102%. For the compound `C[S+]([O-])c1cn(-c2ncc(-c3ccccc3F)cn2)c2cc(C(=O)N3CCC4(COC4)C3)ccc12` (stereo not shown) [Example 370, (1-(5-(2-Fluorophenyl)pyrimidin-2-yl)-3-(methylsulfinyl)-1H-indol-6-yl)(2-oxa-6-azaspiro[3.4]octan-6-yl)methanone], the inhibition at 1 µM was determined as 23%. On to `C[S+]([O-])c1cn(-c2ncc(-c3ccc(C#N)cc3)cn2)c2cc(C(=O)N3CCOCC3)ccc12` (stereo not shown) [Example 31, 4-(2-(3-(Methylsulfinyl)-6-(morpholine-4-carbonyl)-1H-indol-1-yl)pyrimidin-5-yl)benzonitrile], for which the inhibition at 1 µM was 75%.

Regarding `C[S+]([O-])c1cn(-c2ncc(-c3ccccc3)cn2)c2cc(C(=O)N3C[C@H]4C[C@@H]3CN4)ccc12` (stereo partly drawn) [Example 232, (1R,4R)-2,5-Diazabicyclo[2.2.1]heptan-2-yl(3-(methylsulfinyl)-1-(5-phenylpyrimidin-2-yl)-1H-indol-6-yl)methanone], the inhibition at 1 µM was 57%.

On to `COCCN(C)C(=O)c1ccc2c([S+](C)[O-])cn(-c3ncc(-c4ccccc4F)cn3)c2c1` (stereo not shown) [Example 65, 1-(5-(2-Fluorophenyl)pyrimidin-2-yl)-N-(2-methoxyethyl)-N-methyl-3-(methylsulfinyl)-1H-indole-6-carboxamide], for which the inhibition at 1 µM was 40%. For `CC(O)c1cn(-c2ncc(-c3ccccc3F)cn2)c2cc(C(=O)N3CCOCC3)ccc12` (single isomer, unassigned) [Example 253, (1-(5-(2-Fluorophenyl)pyrimidin-2-yl)-3-(1-hydroxyethyl)-1H-indol-6-yl)(morpholino)methanone], the Inhibition in % was 120%. Regarding `C[S+]([O-])c1cn(-c2ncc(-c3cc(C#N)ccc3F)cn2)c2cc(C(=O)N3CC[C@@H](N)C3)ccc12` (stereo partly drawn) [Example 225, 3-(2-(6-((R)-3-Aminopyrrolidine-1-carbonyl)-3-(methylsulfinyl)-1H-indol-1-yl)pyrimidin-5-yl)-4-fluorobenzonitrile], the inhibition at 1 µM was 92%. Consider `COc1ccc(F)c(-c2cnc(-n3cc(S(C)(=O)=O)c4ccc(C(=O)N5CC[C@@H](N)C5)cc43)nc2)c1` [Example 230, (R)-(3-Aminopyrrolidin-1-yl)(1-(5-(2-fluoro-5-methoxyphenyl)pyrimidin-2-yl)-3-(methylsulfonyl)-1H-indol-6-yl)methanone], for which the inhibition at 1 µM is 110%. Turning to `C[S+]([O-])c1cn(-c2ncc(-c3cc(O)ccc3F)cn2)c2cc(C(=O)N3CCOCC3)ccc12` (stereo not shown) [Example 41, (1-(5-(2-Fluoro-5-hydroxyphenyl)pyrimidin-2-yl)-3-(methylsulfinyl)-1H-indol-6-yl)(morpholino)methanone], the inhibition at 1 µM was determined as 100%.

On to `CN(CC(N)=O)C(=O)c1ccc2c([S+](C)[O-])cn(-c3ncc(-c4ccccc4F)cn3)c2c1` (stereo not shown) [Example 174, N-(2-Amino-2-oxoethyl)-1-(5-(2-fluorophenyl)pyrimidin-2-yl)-N-methyl-3-(methylsulfinyl)-1H-indole-6-carboxamide], for which the inhibition at 1 µM is 105%.

Take `C[S+]([O-])c1cn(-c2ncc(-c3ccccc3)cn2)c2cc(C(=O)N3CCOCC3)ccc12` (single isomer, unassigned) [Example 164, (3-(Methylsulfinyl)-1-(5-phenylpyrimidin-2-yl)-1H-indol-6-yl)(morpholino)methanone]: the Inhibition in % is on record as 92%. On to `CN(C(=O)c1ccc2c([S+](C)[O-])cn(-c3ncc(-c4ccccc4F)cn3)c2c1)C1CCOC1` (stereo not shown) [Example 54, 1-(5-(2-Fluorophenyl)pyrimidin-2-yl)-N-methyl-3-(methylsulfinyl)-N-(tetrahydrofuran-3-yl)-1H-indole-6-carboxamide], for which the inhibition at 1 µM came out at 46%. Turning to `COc1ccc(-c2cnc(-n3cc([S+](C)[O-])c4ccc(C(=O)N5CCOCC5)cc43)nc2)cc1` (stereo not shown) [Example 33, (1-(5-(4-Methoxyphenyl)pyrimidin-2-yl)-3-(methylsulfinyl)-1H-indol-6-yl)(morpholino)methanone], the inhibition at 1 µM was 88%.

On to `CN(CC1CC1)C(=O)c1ccc2c([S+](C)[O-])cn(-c3ncc(-c4ccccc4F)cn3)c2c1` (stereo not shown) [Example 360, N-(Cyclopropylmethyl)-1-(5-(2-fluorophenyl)pyrimidin-2-yl)-N-methyl-3-(methylsulfinyl)-1H-indole-6-carboxamide], for which the inhibition at 1 µM was found to be 75%.

As for `CN(CC(C)(C)O)C(=O)c1ccc2c([S+](C)[O-])cn(-c3ncc(-c4ccccc4F)cn3)c2c1` (stereo not shown) [Example 171, 1-(5-(2-Fluorophenyl)pyrimidin-2-yl)-N-(2-hydroxy-2-methylpropyl)-N-methyl-3-(methylsulfinyl)-1H-indole-6-carboxamide], the inhibition at 1 µM was 38%. Take `C[S+]([O-])c1cn(-c2ncc(-c3ccncc3)cn2)c2cc(C(=O)N3CCOCC3)ccc12` (stereo not shown) [Example 47, (3-(Methylsulfinyl)-1-(5-(pyridin-4-yl)pyrimidin-2-yl)-1H-indol-6-yl)(morpholino)methanone]: the inhibition at 1 µM was 61%.

For the compound `CN1CCN(C(=O)c2ccc3c([S+](C)[O-])cn(-c4ncc(-c5ccccc5F)cn4)c3c2)CC1` (stereo not shown) [Example 365, (1-(5-(2-Fluorophenyl)pyrimidin-2-yl)-3-(methylsulfinyl)-1H-indol-6-yl)(4-methylpiperazin-1-yl)methanone], the inhibition at 1 µM was 54%.

On to `C[S+]([O-])c1cn(-c2ncc(-c3ccccc3F)cn2)c2cc(C(=O)N3CCC[C@H]3CO)ccc12` (stereo partly drawn) [Example 79, (1-(5-(2-Fluorophenyl)pyrimidin-2-yl)-3-(methylsulfinyl)-1H-indol-6-yl)((S)-2-(hydroxymethyl)pyrrolidin-1-yl)methanone], for which the inhibition at 1 µM is 103%. As for `C[S+]([O-])c1cn(-c2ncc(-c3ccc(F)cc3)cn2)c2cc(C(=O)N3CCOCC3)ccc12` (stereo not shown) [Example 32, (1-(5-(4-Fluorophenyl)pyrimidin-2-yl)-3-(methylsulfinyl)-1H-indol-6-yl)(morpholino)methanone], the inhibition at 1 µM was determined as 80%.

Turning to `CC1CCCN1C(=O)c1ccc2c([S+](C)[O-])cn(-c3ncc(-c4ccccc4F)cn3)c2c1` (stereo not shown) [Example 359, (1-(5-(2-Fluorophenyl)pyrimidin-2-yl)-3-(methylsulfinyl)-1H-indol-6-yl)(2-methylpyrrolidin-1-yl)methanone], the inhibition at 1 µM is 90%.

Turning to `COc1ccc(F)c(-c2cnc(-n3cc(S(C)(=O)=O)c4ccc(C(=O)N5CCOCC5)cc43)nc2)c1` [Example 162, (1-(5-(2-Fluoro-5-methoxyphenyl)pyrimidin-2-yl)-3-(methylsulfonyl)-1H-indol-6-yl)(morpholino)methanone], the inhibition at 1 µM came to 95%.
